The source of these data is patent publication US12403104B2, “Compounds and methods of promoting myelination” (Case Western Reserve University, priority 2016, dated 2025).

For assay [1], the system named is mouse epiblast stem cell-derived OPCs. The experiment in a line: In vitro phenotypic screening of OPCs (MBP+ oligodendrocytes at 72 h). Type of assay: cell-based. On the procedure: Then, 40,000 cells were seeded per well in differentiation medium and allowed to attach for 30 min before addition of drug. […] Sterols were added to cells as an ethanol solution (0.2% final ethanol concentration). […] Cells were incubated under standard conditions (37° C., 5% CO2) for 3 days and fixed with 4% paraformaldehyde (PFA) in phosphate buffered saline (PBS) for 20 min. Fixed plates were washed with PBS (200 μL per well) twice, permeabilized with 0.1% Triton X-100 and blocked with 10% donkey serum (v/v) in PBS for 40 min. […] Nuclei were visualized by DAPI staining (Sigma; 1 μg/ml).

Assay [2] has as its system mouse primary OPCs. Kind of assay: MBP+ oligodendrocyte formation from mouse primary OPCs. Type of assay: cell-based. Particulars: 72 h. On the procedure: To obtain mouse primary OPCs, whole brain was removed from post-natal day 2 pups anesthetized on ice. Brains were placed in cold DMEM/F12, and the cortices were isolated and the meninges were removed. The cortices were manually chopped and processed with the Tumor Dissociation Kit (Miltenyi) and incubated at 37° C. for 10 minutes. The cell suspension was filtered through a […] filter and centrifuged at 200×g for 4 minutes at room temperature. The cells were washed in DMEM/F12, re-centrifuged and plated in poly-Ornithine and Laminin-treated flasks containing DMEM/P12 supplemented with N2 Max, B27 (ThermoFisher), 20 ng/mL FGF, and 20 ng/mL PDGF. […] were passaged once prior to treatment. Media was changed every 48 hours.
Then, 40,000 cells were seeded per well in differentiation medium and allowed to attach for 30 min before addition of drug. For dose-response testing of all molecules except sterols, a 1000× compound stock in dimethyl sulphoxide (DMSO) was added to assay plates with 0.1 μL solid pin multi-blot replicators (V & P Scientific; VP 409), resulting in a final primary screening concentration of 1×. Sterols were added to cells as an ethanol solution (0.2% final ethanol concentration). […] Cells were incubated under standard conditions (37° C., 5% CO2) for 3 days and fixed with 4% paraformaldehyde (PFA) in phosphate buffered saline (PBS) for 20 min. […]

For assay [3], the system named is OPCs. The experiment in a line: GC/MS-based sterol profiling in OPCs. Type of assay: cell-based, mouse. The note with it: for sterol levels / sterol intermediate accumulation in OPCs: GC/MS, 24 h treatment (siRNA 96 h).
The target of assay [4] is T1, EBP (Mus musculus, UniProt P70245).
T1 construct: active EBP was obtained from mouse microsomes; from tissue
T1 sequence (P70245 1-230): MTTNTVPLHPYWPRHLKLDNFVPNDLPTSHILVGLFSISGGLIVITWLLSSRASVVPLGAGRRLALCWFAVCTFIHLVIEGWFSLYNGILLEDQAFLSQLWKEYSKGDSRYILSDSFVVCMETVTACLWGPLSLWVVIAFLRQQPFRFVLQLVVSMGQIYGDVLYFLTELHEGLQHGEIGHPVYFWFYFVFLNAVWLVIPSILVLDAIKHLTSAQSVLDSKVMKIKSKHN
The experiment in a line: EBP enzymatic assay (GC/MS). Type of assay: biochemical. Particulars: 10 μM, zymostenol 25 μM.

In assay [5] the test system is human glioma cells (GBM528). The experiment in a line: GC/MS sterol profiling in human glioma cell line. Type of assay: cell-based. The note with it: 24 h.
The subject of assay [6] is LPC-lesioned spinal cord. The note with it: earlier work; cited from earlier work.
Assay [7] concerns LPC-lesioned spinal cord. The experiment in a line: LPC focal demyelination of spinal cord, remyelination. The note with it: ifenprodil 10 mg per kg, tamoxifen 2 mg per kg, daily intraperitoneal, 8 days. Type of assay: in vivo, mouse.
Assay [8] deals with T47D cells. Particulars: 5 days.

Take `Cc1cc(C)c(CNC(=O)c2cc(-c3ccc(CN4CCOCC4)cc3)cc3c2cnn3C2CCCC2)c(=O)[nH]1` [EPZ005687]: the “formation of MBP+ oligodendrocytes from OPCs” value in assay [1] was “enhanced oligodendrocyte formation”. Further, in assay [2], the “oligodendrocyte formation from mouse primary OPCs” value is recorded as “enhanced oligodendrocyte formation”. For the same molecule, the “sterol levels / sterol intermediate accumulation in OPCs” value in assay [3] is “uniquely caused accumulation of zymosterol and zymostenol in OPCs”. The “inhibition of EBP enzymatic activity” value in assay [4] was “directly inhibiting EBP enzymatic activity”.

In the case of `Clc1ccc(COC(Cn2ccnc2)c2ccc(Cl)cc2Cl)c(Cl)c1` (stereo not drawn) [miconazole, Miconazole], in assay [5], the “accumulation of sterol intermediates in human glioma cell line” value (“accumulation of sterol intermediates” below) is “caused accumulation of the expected sterol intermediates”. The “remyelination in mouse models of demyelination (previously established)” value in assay [6] is on record as “enhances remyelination in mouse models of demyelination”.

As to `CC/C(=C(\c1ccccc1)c1ccc(OCCN(C)C)cc1)c1ccccc1` [tamoxifen, Tamoxifen], the “sterol levels / sterol intermediate accumulation in OPCs” value in assay [3] was “induced accumulation of zymostenol and zymosterol and decreased basal sterol levels”. In assay [4], the “inhibition of EBP enzymatic activity” value is “clear inhibition”. Also, in assay [7], the “remyelination of LPC lesion” value is “remyelination was widespread throughout the lesion”. Besides, in assay [5], the “accumulation of sterol intermediates” value is “caused accumulation of the expected sterol intermediates”.

On to `OCCOc1ccc(/C(=C(/CCCl)c2ccccc2)c2ccccc2)cc1` [ospemifene, Ospemifene], for which, in assay [1], the “formation of MBP+ oligodendrocytes from OPCs” value is “did not enhance differentiation to MBP+ oligodendrocytes”. In addition, the “cholesterol pathway enzyme inhibited in OPCs (from sterol profile)” value in assay [3] is on record as “did not inhibit EBP in OPCs”. Further, the “antiestrogen effects on estrogen-dependent growth” value in assay [8] is “comparable antiestrogen effects”.

Take `CC(C(O)c1ccc(O)cc1)N1CCC(Cc2ccccc2)CC1` (stereo not drawn) [ifenprodil, Ifenprodil]: the “remyelination of LPC lesion” value in assay [7] is given as “remyelination was widespread throughout the lesion”. The “accumulation of sterol intermediates” value in assay [5] is “caused accumulation of the expected sterol intermediates”.
